The values that follow come from patent US10828306B2, “Methotrexate for proliferative vitreoretinopathy” (Massachusetts Eye and Ear Infirmary, priority 2014, dated 2020).

Values joined by “and” are separate entries in the source; they are usually repeats but may differ in a detail not shown here. Equal values may be shown once. “Also recorded” adds a separate entry of the source.

Data set [1] relates to human proliferative vitreoretinopathy (PVR) cells. As to the kind of experiment: Growth of human PVR cells in culture. In kind it is cell-based. The note with it: for Growth of PVR cells versus control: methotrexate 400, 200, 100 (micrograms, μM), 30,000 cells per well. On the procedure: The cells were treated with 100 μM, 200 μM, or 400 μM Methotrexate (MTX) as indicated, and the images were taken after 72 hours (2A), 1 week (2B) or 2 weeks (2C).
We hypothesized that methotrexate would inhibit human proliferative vitreoretinopathy (PVR) cells in culture. PVR membranectomy was performed in patients undergoing retinal detachment repair secondary to PVR. Using cellular separation techniques, cellular constituents of the PVR membranes were separated from the extracellular matrix membranes. 30,000 cells per well were placed into a standard 12 welled plate. All 12 wells received endothelial cell growth medium with supplemental growth factors. Four arms were designated consisting of three wells each. The first arm served as a control receiving the standard growth medium but no other intervention. The remaining wells were designated as treatment arms. The second arm of three wells served as the first treatment arm and exposed the cells to 400 micrograms of methotrexate. The third and fourth arms of three wells each exposed the cultured cells to 200 and 100 micrograms, respectively, of methotrexate.

The subject of data set [2] is patients, eyes with a wide variety of conditions including PVR. The note with it: intravitreal, varying doses, cited from earlier work.
Data set [3] concerns patients with retinal detachment at high risk for proliferative vitreoretinopathy (PVR). The experiment in a line: Pilot study of multiple intravitreal methotrexate injections after PPV in eyes at high risk for PVR. In kind it is in vivo, human. Also noted: IOP at last follow up / Final IOP: unit not given here. From the text: We hypothesized that the administration of multiple, intravitreal methotrexate injections into eyes with high-risk features for post-operative proliferative vitreoretinopathy (PVR) development will have improved visual outcomes, higher anatomic final reattachment rates, decreased reoperation rates, and decreased occurrence of PVR at 4 months postoperatively.
We have performed a small pilot study in 10 patients with retinal detachment whom had high-risk clinical factors for developing PVR.
Patients 18 years to 89 years old of both genders were eligible for this study if they required pars plana vitrectomy (PPV) for rhegmatagenous retinal detachment secondary to trauma, PPV for preexisting proliferative vitreoretinopathy grade C or higher, or if they had retinal detachments requiring PPV for other indications associated with high risk condition for PVR development, i.e.: giant retinal tears (Giant retinal tears are defined as tears involving 90° or more of the circumference of the globe), retinal breaks larger than 3 disc areas, long-standing retinal detachments, detachments associated with hemorrhage.
The PPV was performed under local or general anesthesia using three, 23 or 20 gauge sclerotomy ports. Any present epiretinal membranes were dissected using a membrane pick and/or forceps. Intraoperative tissue staining, perfluorocarbons, cryopexy, endolaser, scleral buckling, and lensectomy were performed as needed. Either silicone oil or gas was used as the tamponading agent.
Routine post-operative visits, which involve a dilated funduscopic examination, occurred on post-operative day 1, 7, month 1, month 2, and month 3.
In addition to receiving the above-described standard of care, patients received multiple intravitreal methotrexate injections during their post-operative period. The first injection was administered intraoperatively and subsequently was injected on post-op week 1,2,3,4,5,6,7,8 and on post-op month 3, for a total of 10 injections. Intravitreal methotrexate injections were performed aseptically after the topical application of anaesthesia and 5% povidone iodine to the conjunctival sac. Each patient received an intravitreal injection of 400 mcg/0.1 ml methotrexate, 3.0 to 3.5 mm posterior to the limbus, depending on lens status, with a 30-gauge needle.
After injection, patients were monitored for adverse events, including a full-dilated funduscopic examination.

Where [4] appears, read: one patient (studyid), follow up 4 to 39 months.
Where [5] appears, read: one patient (studyid), intravitreal methotrexate 400 mcg/0.1 ml.

As for `CN(Cc1cnc2nc(N)nc(N)c2n1)c1ccc(C(=O)N[C@@H](CCC(=O)O)C(=O)O)cc1` [methotrexate, N-[4-[[(2,4-diamino-6-pteridinyl)methyl]methylamino]benzoyl]-L-glutamic acid], the “Proliferation of human PVR cells in culture” value in data set [1] (100 μM, 200 μM, or 400 μM) is “inhibited proliferation”. The “Growth of PVR cells versus control” value in data set [1] (1 week) was “growth inhibition and lack of confluency”. For the same molecule, in data set [1] (2 weeks), the “Growth of PVR cells versus control” value is “inhibited growth and lack of confluency; also recorded: inhibition of cellular confluency continued”. In addition, the “Change in visual acuity for the group” value in data set [2] (5 patients) was “no change in visual acuity”. For the same molecule, the “Number of patients with any improved vision” value in data set [2] (of 5 patients) is listed as “one”. Besides, the “Other subjects with reaccumulation of fluid under the retina requiring re-operation, no membranes” value in data set [3] (10 patients) is listed as “Two”. Moreover, the “Development of PVR while receiving methotrexate” value in data set [3] (10 patients, three-month treatment protocol) is “no subjects developed PVR”. Further, in data set [3] (10 patients, consistent with the use of silicone oil), the “Subjects with a degree of conjunctival hyperemia” value is “All subjects”. Further, the “Median post-operative visual acuity” value in data set [3] (10 patients, median pre-operative visual acuity Hand Motions at 2 feet) is reported as 20/200. Moreover, the “Visual acuity and intraocular pressure at last follow up visit compared with post-operative month 4” value in data set [3] (all patients) is on record as “similar”. Besides, the Significant adverse events entry in data set [3] (follow up 4 to 39 months, median 25 months) is given as “no significant adverse events were observed”. Further, in data set [3] (one patient (studyid)), the “Adverse events observed: Conjunctival hyperemia” value is 4 (2×) and 7 (3×) and 5 (3×) and 6 (2×); the “Adverse events observed: Elevated intraocular pressure” value was 0 (9×) and 1; the “Adverse events observed: NLP” value was 0 (9×) and 1; the “Adverse events observed: Superficial Punctate Keratopathy” value was 0 (9×) and 1. In addition, in data set [3] (one patient (studyid)), the Reoperations required is 1 (2×) and 0 (8×). Moreover, in data set [3] (setting [4]), the “IOP at last follow up” value is 16 (2×) and 9 (3×) and 22 and 14 (2×) and 12 and 15; the “Visual acuity at last follow up” value is 20/300 and 20/200 and NLP and 20/70 and 20/150 and 20/500. Also, in data set [3] (setting [5]), the “Detachments: Number of detachments due to PVR during study period” value is 0 (9×) and 0*; the “Final IOP” value is 12 (3×) and 9 (2×) and 10 and 8 and 15 and 13 (2×). For the same molecule, the “Visual Acuity, Post-op month 4” value in data set [3] (one patient (studyid), intravitreal methotrexate 400 mcg/0.1 ml, up to 10 injections over 3 months) was 20/200 (4×) and 20/160 and 20/252 and NLP and 20/65 and 20/320. In addition, the “Elevated intraocular pressure by Goldmann Tonometry” value in data set [3] (one patient, single examination, attributed to excessive steroid use) is reported as 44 mm Hg. The “Patients with superficial punctuate keratopathy (SPK)” value in data set [3] (single clinical exam, normal corneal surface one week later) is reported as “one”. The “PVR after completion of the injection protocol” value in data set [3] (trauma patient #4, at 3½ months postoperatively) is on record as “massive PVR two weeks after completion of the injection protocol”.
